Assay results as given in patent US20100183699A1, “COMPOSITIONS AND METHODS TO CROSS LINK POLYMER FIBERS” (priority 2009, published 2010).
Entries after “also recorded” stand apart in the source; their conditions may differ. Read-outs that look alike come from different tables or passages of the source. Blank lines part the entries; values can stand above or below the compound they belong to.

How the values were obtained:
[1] = SEM fiber morphology after exposure to aqueous environment (water, DMEM); format: physicochemical; conditions: genipin 0.03-0.1 M in absolute ethanol or isopropanol, crosslinking for 5 days
Description: All samples were imaged using a Scanning Electron Microscope (Leo 1530) and diameters of 100 randomly selected fibers were measured, per sample, using image processing software (ImageJ). One-way ANOVA using the Tukey test was used to compare the difference between the diameters of crosslinked samples (Dcrosslink) and after exposure to growth media for 1 and 3 days (Dfinal). If a significant difference existed, the percent swelling was then calculated using the equation: […]
The experimental parameters investigated were: solvent (isopropanol, ethanol), water content (0%, 1%, 3% and 5%) and reaction time (1, 3 and 5 days). All electrospun collagen fiber samples were exposed to air and the reaction temperature was maintained at 37° C. in an incubator. The genipin concentration was fixed at 11.3 mg of genipin per mg of collagen, which was sufficient for the crosslinking reaction to reach completion (Yao, C. H., et al., Materials Chemistry and Physics 2004, 83, (2-3), 204-208). After crosslinking, the collagen samples were washed in ethanol or isopropanol (depending on the solvent used) for further characterization.

[2] = test system: cells; conditions: cited from earlier work; for cytotoxicity: crosslinking agent
[3] = literature reports on alternative crosslinkers, cited from earlier work

morphology and overall architecture of collagen nanofibers after exposure to water [1]: failed to maintain the morphology
Compound: COC(=O)C1=CO[C@@H](O)[C@@H]2C(CO)=CC[C@H]12 [genipin]
cell proliferation ([2]; compared to glutaraldehyde): more stimulative to cell proliferation
cytotoxicity [2]: low cytotoxicity

Compound: O=CCCCC=O [glutaraldehyde, Glutaraldehyde]
swelling / morphology of crosslinked collagen fibers in water [3]: not very effective in controlling its swelling properties
swelling / morphology of crosslinked collagen fibers in water ([3]; listed as GA): failed to maintain collagen fiber morphology; also recorded: swell significantly in water
cytotoxicity [2]: highly cytotoxic

Compound: CCN=C=NCCCN(C)C [EDC, 1-ethyl-3-(3-dimethylaminopropyl) carbodiimide]
swelling / morphology of crosslinked collagen fibers in water [3]: significant degree of swelling

Compound: O=C1CCC(=O)N1O [NHS, N-hydroxysuccinimide]
swelling / morphology of crosslinked collagen fibers in water [3]: significant degree of swelling
